Results: patent publication US6355799B1, “Substituted benzene compounds, process for their preparation, and herbicidal and defoliant compositions containing them” (ISK Americas Incorporated, priority 1997, dated 2002)

Key:
Assay type in all cases: in vivo
[1] = test system: lambsquarters (Chenopodium album, CHEAL); test: Post-emerge test, greenhouse herbicide activity screening; conditions: post-emerge, 14 days after application, rating scale 0-100
Procedure, shortened: (§1)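 Sandy loam pots; pre-emerge: sown 1 d pre-spray, surface-watered after, then bottom-watered. Post-emerge: sown 8–21 d before, 2–3 leaf stage, + 0.25% v/v NIS, bottom-watered. Acetone, 187 l/ha track spray, 15–1000 g ai/ha. 0–100 injury score, day 14.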

[2] = test system: large crabgrass (Digitaria sanguinalis, DIGSA); test: as above; conditions: post-emerge, 14 days after application, rating scale 0-100
Procedure, shortened: as §1

[3] = test system: ivyleaf morningglory (Ipomoea hederacea, IPOHE); test: as above; conditions: post-emerge, 14 days after application, rating scale 0-100
Procedure, shortened: as §1

[4] = test system: redroot pigweed (Amaranthus retroflexus, AMARE); test: as above; conditions: post-emerge, 14 days after application, rating scale 0-100
Procedure, shortened: as §1

[5] = test system: velvetleaf (Abutilon theophrasti, ABUTH); test: as above; conditions: post-emerge, 14 days after application, rating scale 0-100
Procedure, shortened: as §1

[6] = test system: sicklepod (Cassia obtusifolia, CASOB); test: as above; conditions: post-emerge, 14 days after application, rating scale 0-100
Procedure, shortened: as §1

[7] = test system: johnsongrass (Sorghum halepense, SORHA); test: as above; conditions: post-emerge, 14 days after application, rating scale 0-100
Procedure, shortened: as §1

[8] = test system: barnyardgrass (Echinochloa crus-galli, ECHCG); test: as above; conditions: post-emerge, 14 days after application, rating scale 0-100
Procedure, shortened: as §1

[9] = test system: common ragweed (Ambrosia artemisizfolia L., AMBEL); test: as above; conditions: post-emerge, 14 days after application, rating scale 0-100
Procedure, shortened: as §1

[10] = test system: upland rice (Oryza sp., var. Tebonnet, RICE); test: Post-emerge test, crop safety; conditions: post-emerge, 14 days after application, rating scale 0-100
Procedure, shortened: (§2)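 Herbicidal damage is scored 0 (none) to 100 (complete plant death) two weeks after a simulated field spray. Rates span 15–1000 g ai/ha, delivered in acetone at 187 l/ha. For post-emergence treatments, plants have 2–3 leaves and the spray carries 0.25% v/v non-ionic surfactant.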

[11] = test system: field corn (Zea mays L., var. Dekalb 535, CORN); test: Post-emerge test, crop safety; conditions: post-emerge, 14 days after application, rating scale 0-100
Procedure, shortened: as §2

[12] = test system: lambsquarters (Chenopodium album, CHEAL); test: Pre-emerge test, greenhouse herbicide activity screening; conditions: rated 14 days after application, 0 = no damage, 100 = complete death
Procedure, shortened: as §2

[13] = test system: large crabgrass (Digitaria sanguinalis, DIGSA); test: as above; conditions: rated 14 days after application, 0 = no damage, 100 = complete death
Procedure, shortened: as §2

[14] = test system: ivyleaf morningglory (Ipomoea hederacea, IPOHE); test: as above; conditions: rated 14 days after application, 0 = no damage, 100 = complete death
Procedure, shortened: as §2

[15] = test system: velvetleaf (Abutilon theophrasti, ABUTH); test: as above; conditions: rated 14 days after application, 0 = no damage, 100 = complete death
Procedure, shortened: as §2

[16] = test system: sicklepod (Cassia obtusifolia, CASOB); test: as above; conditions: rated 14 days after application, 0 = no damage, 100 = complete death
Procedure, shortened: as §2

[17] = test system: johnsongrass (Sorghum halepense, SORHA); test: as above; conditions: rated 14 days after application, 0 = no damage, 100 = complete death
Procedure, shortened: as §2

[18] = test system: barnyardgrass (Echinochloa crus-galli, ECHCG); test: as above; conditions: rated 14 days after application, 0 = no damage, 100 = complete death
Procedure, shortened: as §2

[19] = test system: common ragweed (Ambrosia artemisizfolia L., AMBEL); test: as above; conditions: rated 14 days after application, 0 = no damage, 100 = complete death
Procedure, shortened: as §2

[20] = test system: green foxtail (Setaria viridis, SETVI); test: as above; conditions: rated 14 days after application, 0 = no damage, 100 = complete death
Procedure, shortened: as §2

[21] = test system: redroot pigweed (Amaranthus retroflexus, AMARE); test: as above; conditions: rated 14 days after application, 0 = no damage, 100 = complete death
Procedure, shortened: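 Plants grown in 10 cm pots of sandy loam mix received acetone-dissolved compounds through a moving flat-fan nozzle. Doses ranged from 15 to 1000 g ai/ha. Pre-emerge pots were seeded one day earlier, post-emerge pots 8–21 days earlier. Fourteen days on, each pot was graded 0–100 for damage.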

[22] = test system: upland rice (Oryza sp., var. Tebonnet, RICE); test: Pre-emerge test, crop safety; conditions: rated 14 days after application, 0 = no damage, 100 = complete death
Procedure, shortened: (§3)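 Visual ratings on a 0-100 scale (0 no damage, 100 all plants dead) were taken at 14 days after treatment. Rates of 15-1000 g ai/ha in acetone, 187 l/ha, were sprayed onto soil one day after planting (pre-emerge) or onto 2-3 leaf plants with 0.25% v/v surfactant (post-emerge).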

[23] = test system: field corn (Zea mays L., var. Dekalb 535, CORN); test: Pre-emerge test, crop safety; conditions: rated 14 days after application, 0 = no damage, 100 = complete death
Procedure, shortened: as §3

## COc1c(Cl)cc(F)c(-n2c(=O)cc(C(F)(F)F)n(C)c2=O)c1N(C(=O)c1ccc(F)c(F)c1)C(=O)c1ccc(F)c(F)c1 [2-49]
[1]; 63 g ai/ha
  phytotoxicity rating CHEAL: 60
[1]; 250 g ai/ha
  phytotoxicity rating CHEAL: 60
[2]; 63 g ai/ha
  phytotoxicity rating DIGSA: 0
[2]; 250 g ai/ha
  phytotoxicity rating DIGSA: 0
[3]; 63 g ai/ha
  phytotoxicity rating IPOHE: 70
[3]; 250 g ai/ha
  phytotoxicity rating IPOHE: 70
[4]; 63 g ai/ha
  phytotoxicity rating AMARE: 20
[4]; 250 g ai/ha
  phytotoxicity rating AMARE: 40
[5]; 63 g ai/ha
  phytotoxicity rating ABUTH: 90
[5]; 250 g ai/ha
  phytotoxicity rating ABUTH: 100
[6]; 63 g ai/ha
  phytotoxicity rating CASOB: 30
[6]; 250 g ai/ha
  phytotoxicity rating CASOB: 50
[7]; 63 g ai/ha
  phytotoxicity rating SORHA: 0
[7]; 250 g ai/ha
  phytotoxicity rating SORHA: 0
[8]; 63 g ai/ha
  phytotoxicity rating ECHCG: 0
[8]; 250 g ai/ha
  phytotoxicity rating ECHCG: 0
[9]; 63 g ai/ha
  phytotoxicity rating AMBEL: 50
[9]; 250 g ai/ha
  phytotoxicity rating AMBEL: 40
[10]; 63 g ai/ha
  phytotoxicity rating RICE: 0
[10]; 250 g ai/ha
  phytotoxicity rating RICE: 10
[11]; 63 g ai/ha
  phytotoxicity rating CORN: 0
[11]; 250 g ai/ha
  phytotoxicity rating CORN: 10
[12]; 63 g ai/ha
  Pre-emerge Herbicidal Activity, phytotoxicity rating (0-100), CHEAL: 100
[12]; 250 g ai/ha
  Pre-emerge Herbicidal Activity, phytotoxicity rating (0-100), CHEAL: 100
[13]; 63 g ai/ha
  Pre-emerge Herbicidal Activity, phytotoxicity rating (0-100), DIGSA: 20
[13]; 250 g ai/ha
  Pre-emerge Herbicidal Activity, phytotoxicity rating (0-100), DIGSA: 100
[14]; 63 g ai/ha
  Pre-emerge Herbicidal Activity, phytotoxicity rating (0-100), IPOHE: 0
[14]; 250 g ai/ha
  Pre-emerge Herbicidal Activity, phytotoxicity rating (0-100), IPOHE: 90
[15]; 63 g ai/ha
  Pre-emerge Herbicidal Activity, phytotoxicity rating (0-100), ABUTH: 100
[15]; 250 g ai/ha
  Pre-emerge Herbicidal Activity, phytotoxicity rating (0-100), ABUTH: 100
[16]; 63 g ai/ha
  Pre-emerge Herbicidal Activity, phytotoxicity rating (0-100), CASOB: 0
[16]; 250 g ai/ha
  Pre-emerge Herbicidal Activity, phytotoxicity rating (0-100), CASOB: 100
[17]; 63 g ai/ha
  Pre-emerge Herbicidal Activity, phytotoxicity rating (0-100), SORHA: 0
[17]; 250 g ai/ha
  Pre-emerge Herbicidal Activity, phytotoxicity rating (0-100), SORHA: 0
[18]; 63 g ai/ha
  Pre-emerge Herbicidal Activity, phytotoxicity rating (0-100), ECHCG: 0
[18]; 250 g ai/ha
  Pre-emerge Herbicidal Activity, phytotoxicity rating (0-100), ECHCG: 10
[19]; 63 g ai/ha
  Pre-emerge Herbicidal Activity, phytotoxicity rating (0-100), AMBEL: 100
[19]; 250 g ai/ha
  Pre-emerge Herbicidal Activity, phytotoxicity rating (0-100), AMBEL: 100
[20]; 63 g ai/ha
  Pre-emerge Herbicidal Activity, phytotoxicity rating (0-100), SETVI: 80
[20]; 250 g ai/ha
  Pre-emerge Herbicidal Activity, phytotoxicity rating (0-100), SETVI: 95
[21]; 63 g ai/ha
  Pre-emerge Herbicidal Activity, phytotoxicity rating (0-100), AMARE: 100
[21]; 250 g ai/ha
  Pre-emerge Herbicidal Activity, phytotoxicity rating (0-100), AMARE: 100
[22]; 63 g ai/ha
  Pre-emerge phytotoxicity rating (0-100), crop damage, RICE: 20
[22]; 250 g ai/ha
  Pre-emerge phytotoxicity rating (0-100), crop damage, RICE: 60
[23]; 63 g ai/ha
  Pre-emerge phytotoxicity rating (0-100), crop damage, CORN: 0
[23]; 250 g ai/ha
  Pre-emerge phytotoxicity rating (0-100), crop damage, CORN: 15

## COc1c(Cl)cc(F)c(-n2c(=O)cc(C(F)(F)F)n(C)c2=O)c1NC(=O)c1ccc(OC(F)(F)F)cc1 [2-72]
[1]; 63 g ai/ha
  phytotoxicity rating CHEAL: 70
[1]; 250 g ai/ha
  phytotoxicity rating CHEAL: 80
[2]; 63 g ai/ha
  phytotoxicity rating DIGSA: 0
[2]; 250 g ai/ha
  phytotoxicity rating DIGSA: 0
[3]; 63 g ai/ha
  phytotoxicity rating IPOHE: 50
[3]; 250 g ai/ha
  phytotoxicity rating IPOHE: 60
[4]; 63 g ai/ha
  phytotoxicity rating AMARE: 70
[4]; 250 g ai/ha
  phytotoxicity rating AMARE: 90
[5]; 63 g ai/ha
  phytotoxicity rating ABUTH: 100
[5]; 250 g ai/ha
  phytotoxicity rating ABUTH: 100
[6]; 63 g ai/ha
  phytotoxicity rating CASOB: 70
[6]; 250 g ai/ha
  phytotoxicity rating CASOB: 95
[7]; 63 g ai/ha
  phytotoxicity rating SORHA: 0
[7]; 250 g ai/ha
  phytotoxicity rating SORHA: 0
[8]; 63 g ai/ha
  phytotoxicity rating ECHCG: 0
[8]; 250 g ai/ha
  phytotoxicity rating ECHCG: 0
[9]; 63 g ai/ha
  phytotoxicity rating AMBEL: 70
[9]; 250 g ai/ha
  phytotoxicity rating AMBEL: 60
[10]; 63 g ai/ha
  phytotoxicity rating RICE: 0
[10]; 250 g ai/ha
  phytotoxicity rating RICE: 20
[11]; 63 g ai/ha
  phytotoxicity rating CORN: 0
[11]; 250 g ai/ha
  phytotoxicity rating CORN: 10
[12]; 63 g ai/ha
  Pre-emerge Herbicidal Activity, phytotoxicity rating (0-100), CHEAL: 100
[12]; 250 g ai/ha
  Pre-emerge Herbicidal Activity, phytotoxicity rating (0-100), CHEAL: 100
[13]; 63 g ai/ha
  Pre-emerge Herbicidal Activity, phytotoxicity rating (0-100), DIGSA: 30
[13]; 250 g ai/ha
  Pre-emerge Herbicidal Activity, phytotoxicity rating (0-100), DIGSA: 100
[14]; 63 g ai/ha
  Pre-emerge Herbicidal Activity, phytotoxicity rating (0-100), IPOHE: 20
[14]; 250 g ai/ha
  Pre-emerge Herbicidal Activity, phytotoxicity rating (0-100), IPOHE: 20
[15]; 63 g ai/ha
  Pre-emerge Herbicidal Activity, phytotoxicity rating (0-100), ABUTH: 100
[15]; 250 g ai/ha
  Pre-emerge Herbicidal Activity, phytotoxicity rating (0-100), ABUTH: 100
[16]; 63 g ai/ha
  Pre-emerge Herbicidal Activity, phytotoxicity rating (0-100), CASOB: 30
[16]; 250 g ai/ha
  Pre-emerge Herbicidal Activity, phytotoxicity rating (0-100), CASOB: 90
[17]; 63 g ai/ha
  Pre-emerge Herbicidal Activity, phytotoxicity rating (0-100), SORHA: 0
[17]; 250 g ai/ha
  Pre-emerge Herbicidal Activity, phytotoxicity rating (0-100), SORHA: 50
[18]; 63 g ai/ha
  Pre-emerge Herbicidal Activity, phytotoxicity rating (0-100), ECHCG: 0
[18]; 250 g ai/ha
  Pre-emerge Herbicidal Activity, phytotoxicity rating (0-100), ECHCG: 50
[19]; 63 g ai/ha
  Pre-emerge Herbicidal Activity, phytotoxicity rating (0-100), AMBEL: 0
[19]; 250 g ai/ha
  Pre-emerge Herbicidal Activity, phytotoxicity rating (0-100), AMBEL: 50
[20]; 63 g ai/ha
  Pre-emerge Herbicidal Activity, phytotoxicity rating (0-100), SETVI: 60
[20]; 250 g ai/ha
  Pre-emerge Herbicidal Activity, phytotoxicity rating (0-100), SETVI: 100
[21]; 63 g ai/ha
  Pre-emerge Herbicidal Activity, phytotoxicity rating (0-100), AMARE: 100
[21]; 250 g ai/ha
  Pre-emerge Herbicidal Activity, phytotoxicity rating (0-100), AMARE: 100
[22]; 63 g ai/ha
  Pre-emerge phytotoxicity rating (0-100), crop damage, RICE: 10
[22]; 250 g ai/ha
  Pre-emerge phytotoxicity rating (0-100), crop damage, RICE: 40
[23]; 63 g ai/ha
  Pre-emerge phytotoxicity rating (0-100), crop damage, CORN: 0
[23]; 250 g ai/ha
  Pre-emerge phytotoxicity rating (0-100), crop damage, CORN: 5
